System: anti-PTX monoclonal antibody
Test: PTX analog interference test (cross reaction rate) on the time-resolved fluorescent immunochromatographic test strip
Assay type: binding, mouse
Method: 20 ul of sample is accurately pipetted into 180 ul of sample diluent and mixed fully.
80 uL of sample solution to be tested is accurately pipetted into a test strip loading well with a micropipette, and reaction is carried out at room temperature (20-25° C.) for 15 min. The test strip is inserted into a load carrier of a fluorescence detector, an item to be tested is selected by touching a display screen, a “Detection Start” button is pressed, the fluorescence detector automatically scans the test strip, and a test result is read through the display screen of an instrument or printed.
Quantitative detection: after the test is completed, the instrument obtains the ratio of the time-resolved fluorescent intensity of the detection area on the test strip to the time-resolved fluorescent intensity of the quality control area. Based on a relationship curve of the ratio of the time-resolved fluorescent intensity of the detection area on the pre-built test strip to the time-resolved fluorescent intensity of the quality control area and the concentration of PTX drugs, the content of PTX drug in the sample to be tested is obtained, and finally, the content of the PTX drug in the sample to be tested is obtained by conversion.
The cross reaction rate is measured according to the method of Embodiment 2.
Several analogs of PTX are selected for interference testing.

Work on `C/C=C(\C)C(=O)N[C@@H](c1ccccc1)[C@@H](O)C(=O)O[C@H]1C[C@@]2(O)[C@@H](OC(=O)c3ccccc3)[C@@H]3[C@]4(OC(C)=O)CO[C@@H]4C[C@H](O)[C@@]3(C)C(=O)[C@H](OC(C)=O)C(=C1C)C2(C)C` [Cephalomannine] yielded a Cross reaction rate (test concentration 1,000 ng/mL) of under 0.04%.
In the case of `CC(=O)O[C@H]1C[C@@]2(O)[C@@H](OC(C)=O)[C@@H]3[C@@]4(CO4)[C@@H](OC(C)=O)C[C@H](OC(C)=O)[C@@]3(C)[C@@H](OC(C)=O)[C@H](OC(C)=O)C(=C1C)C2(C)C` [1-Hydroxybaccatin I], the Cross reaction rate (test concentration 1,000 ng/mL) is reported as under 0.01%.
Compound `CC(=O)OC1CC2(OC(C)=O)C(OC(C)=O)C3C4(CO4)C(O)CC(OC(C)=O)C3(C)C(OC(C)=O)C(OC(C)=O)C(=C1C)C2(C)C` (stereo not drawn) [1-Acetoxyl-5-deacetyl-baccatin I] has a Cross reaction rate (test concentration 1,000 ng/mL) of under 0.01%.
With `CC(=O)OC1CC2(O)C(OC(=O)c3ccccc3)C3C4(OC(C)=O)COC4CC(O)C3(C)C(O)C(OC(C)=O)C(=C1C)C2(C)C` (stereo not drawn) [13-Acetyl-9-dihydrobaccatin III] the Cross reaction rate (test concentration 1,000 ng/mL) was under 0.01%.
With `CC(=O)O[C@@]12CO[C@@H]1C[C@H](O)[C@@]1(C)C(=O)[C@H](O)C3=C(C)[C@@H](O)C[C@@](O)([C@@H](OC(=O)c4ccccc4)[C@H]21)C3(C)C` [10-Deacetyl-baccatin III] the Cross reaction rate (test concentration 1,000 ng/mL) was under 0.01%.
Work on `CC(=O)O[C@@]12CO[C@@H]1C[C@H](O)[C@@]1(C)C(=O)[C@H](O)C3=C(C)[C@@H](OC(=O)[C@H](O)[C@@H](NC(=O)OC(C)(C)C)c4ccccc4)C[C@@](O)([C@@H](OC(=O)c4ccccc4)[C@H]21)C3(C)C` [Docetaxel] yielded a Cross reaction rate (test concentration 1,000 ng/mL) of under 1%.
For `CC(=O)O[C@H]1C(=O)[C@@]2(C)[C@H]([C@H](OC(=O)c3ccccc3)[C@]3(O)C[C@H](O)C(C)=C1C3(C)C)[C@]1(OC(C)=O)CO[C@@H]1C[C@@H]2O` [Baccatin III], the Cross reaction rate (test concentration 1,000 ng/mL) was under 0.01%.
With `CC(=O)O[C@H]1C(=O)[C@@]2(C)[C@H]([C@H](OC(=O)c3ccccc3)[C@]3(O)C[C@H](OC(=O)[C@H](O)[C@@H](NC(=O)c4ccccc4)c4ccccc4)C(C)=C1C3(C)C)[C@]1(OC(C)=O)CO[C@@H]1C[C@@H]2O` [Paclitaxel] the Cross reaction rate (test concentration 100 ng/mL) was 100%.
`CC(=O)O[C@H]1C(=O)[C@]2(C)[C@@H](O[C@@H]3OC[C@@H](O)[C@H](O)[C@H]3O)C[C@H]3OC[C@@]3(OC(C)=O)[C@H]2[C@H](OC(=O)c2ccccc2)[C@]2(O)C[C@H](OC(=O)[C@H](O)[C@@H](NC(=O)c3ccccc3)c3ccccc3)C(C)=C1C2(C)C` [7-Xylosyltaxol] gave a Cross reaction rate (test concentration 1,000 ng/mL) of under 1%.
